Measured values from patent publication US20240156832A1, “METHODS OF METABOLIZING METOPIMAZINE AND ITS SALTS” (Neurogastrx, Inc., priority 2020, published 2024).
Entries after “also recorded” stand apart in the source; their conditions may differ.

Assays:
[1] = Incubation of MPZ in human intestine S9; format: in vitro ADME; conditions: human intestine S9 1 mg/mL, 2.5 μM MPZ, 60 min
Description: Initial experiment was conducted with S9 fractions from liver and intestine to assess the role of liver and intestinal enzymes in the metabolism of MPZ. The reaction mixture contained 2.5 μM MPZ, pooled human liver or intestine S9 fraction (1 mg/mL S9 protein), 100 mM KPi buffer (pH 7.4). The reaction mixture was pre-incubated for 3-5 min at 37° C. in a humidified incubator filled with 5% CO2 followed by the addition of NADPH (1 mM) to initiate the reaction. The reaction was incubated for 0 and 60 min. The total percentage of organic solvent in incubation mixture was <0.1%. The reactions were terminated by the addition of sample mixture of acetonitrile and ethanol (90:10, v/v). The positive control substrate, 7-EC, was incubated in triplicate in an identical manner as MPZ for S9 fractions.

other CYP enzymes = assay: Incubation with the other recombinant CYP isoforms; format: in vitro ADME, human; conditions: 1 μM MPZ, 60 min
Text: All other procedures were the same as described previously.

microsomal FMOs in HLM = assay: Incubation with HLM for FMO (pH 8.4, methimazole, heat); format: in vitro ADME, human; conditions: 1 and 10 μM MPZ, NADPH, with and without methimazole, heat-pretreated control
Description: MPZ, at 1.0 and 10.0 μM, was incubated with HLM or HKM to determine the contribution of microsomal FMOs on the metabolism of MPZ.
A reaction mixture containing KPi buffer (pH 8.4), HLM or HKM (0.5 mg/mL protein) and MPZ (1.0 and 10.0 μM) was pre-incubated for 3-5 minutes at 37° C. The reaction was initiated by the addition of NADPH into the reaction mixture. Reaction was conducted for 0 and 60 min. A positive control (benzydamine, 100 μM) was incubated in duplicate for 0 and 20 minutes. Parallel incubation was conducted by adding 1 mM methimazole, a non-specific FMO inhibitor, under identical conditions. Heat inactivated microsomes (50° C. for at least 5 minutes) was incubated under identical conditions negative control. All other procedures were the same as described previously.

[2] = system: human microsomal liver amidase; assay: Incubations with HLM for microsomal hydrolase/amidase activity; format: in vitro ADME; conditions: HLM, 10 μM MPZ, 60 min, pH 7.4, 8.4 and 9.4
Description: Incubations with HLM for Microsomal Hydrolase/Amidase Activity Prior to the reaction for amidase activity, the reaction mixture containing KPi buffer (pH 7.4, 8.4, or 9.4) and HLM was pre-incubated at 50° C. for 5 minutes to inactivate CYP and FMO activities in HLM. The mixture was placed on ice to cool down. An aliquot was taken out which was considered as t=0 min incubation. Then 10 μM MPZ was added into the remaining mixture and incubated at 37° C. on an orbital shaker for 60 minutes. A parallel set of incubations was conducted with 10 μM MPZ in the presence at 2 and 16 μM, of BNPP (a known inhibitor of amidase). All reactions were in triplicate. The total percentage of organic solvent in incubation mixture was ≤0.1%. The reactions were terminated by the addition of chilled acetonitrile: methanol, 90:10, (v/v). The samples were vortex-mixed and stored at ≤−70° C. and were subjected analyzed by LC MS/MS.

human D2 receptor = human D2 receptor (Homo sapiens, UniProt P14416); conditions: relative to MPZ; cited from earlier work
Sequence of human D2 receptor (P14416 whole entry): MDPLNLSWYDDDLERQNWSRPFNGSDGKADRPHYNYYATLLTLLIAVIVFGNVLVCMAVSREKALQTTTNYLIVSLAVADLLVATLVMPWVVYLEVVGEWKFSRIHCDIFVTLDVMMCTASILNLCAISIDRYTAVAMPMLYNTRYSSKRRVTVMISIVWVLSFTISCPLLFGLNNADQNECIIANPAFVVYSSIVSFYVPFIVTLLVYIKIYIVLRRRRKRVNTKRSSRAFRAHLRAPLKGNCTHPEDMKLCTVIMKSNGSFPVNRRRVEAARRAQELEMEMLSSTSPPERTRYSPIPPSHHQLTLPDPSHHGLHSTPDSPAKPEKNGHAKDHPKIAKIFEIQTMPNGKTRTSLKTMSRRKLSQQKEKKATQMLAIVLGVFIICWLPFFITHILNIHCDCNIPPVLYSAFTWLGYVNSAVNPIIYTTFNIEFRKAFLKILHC

[3] = target: T1, human liver cytosolic aldehyde oxidase (Homo sapiens, UniProt Q06278); assay: Incubations with HLC fractions for AO activity; format: in vitro ADME; conditions: HLC 1 mg/mL, 10 μM MPZ
T1 construct: tissue Xenotech; host or cells: pooled human liver cytosol
T1 sequence (Q06278 1-1338): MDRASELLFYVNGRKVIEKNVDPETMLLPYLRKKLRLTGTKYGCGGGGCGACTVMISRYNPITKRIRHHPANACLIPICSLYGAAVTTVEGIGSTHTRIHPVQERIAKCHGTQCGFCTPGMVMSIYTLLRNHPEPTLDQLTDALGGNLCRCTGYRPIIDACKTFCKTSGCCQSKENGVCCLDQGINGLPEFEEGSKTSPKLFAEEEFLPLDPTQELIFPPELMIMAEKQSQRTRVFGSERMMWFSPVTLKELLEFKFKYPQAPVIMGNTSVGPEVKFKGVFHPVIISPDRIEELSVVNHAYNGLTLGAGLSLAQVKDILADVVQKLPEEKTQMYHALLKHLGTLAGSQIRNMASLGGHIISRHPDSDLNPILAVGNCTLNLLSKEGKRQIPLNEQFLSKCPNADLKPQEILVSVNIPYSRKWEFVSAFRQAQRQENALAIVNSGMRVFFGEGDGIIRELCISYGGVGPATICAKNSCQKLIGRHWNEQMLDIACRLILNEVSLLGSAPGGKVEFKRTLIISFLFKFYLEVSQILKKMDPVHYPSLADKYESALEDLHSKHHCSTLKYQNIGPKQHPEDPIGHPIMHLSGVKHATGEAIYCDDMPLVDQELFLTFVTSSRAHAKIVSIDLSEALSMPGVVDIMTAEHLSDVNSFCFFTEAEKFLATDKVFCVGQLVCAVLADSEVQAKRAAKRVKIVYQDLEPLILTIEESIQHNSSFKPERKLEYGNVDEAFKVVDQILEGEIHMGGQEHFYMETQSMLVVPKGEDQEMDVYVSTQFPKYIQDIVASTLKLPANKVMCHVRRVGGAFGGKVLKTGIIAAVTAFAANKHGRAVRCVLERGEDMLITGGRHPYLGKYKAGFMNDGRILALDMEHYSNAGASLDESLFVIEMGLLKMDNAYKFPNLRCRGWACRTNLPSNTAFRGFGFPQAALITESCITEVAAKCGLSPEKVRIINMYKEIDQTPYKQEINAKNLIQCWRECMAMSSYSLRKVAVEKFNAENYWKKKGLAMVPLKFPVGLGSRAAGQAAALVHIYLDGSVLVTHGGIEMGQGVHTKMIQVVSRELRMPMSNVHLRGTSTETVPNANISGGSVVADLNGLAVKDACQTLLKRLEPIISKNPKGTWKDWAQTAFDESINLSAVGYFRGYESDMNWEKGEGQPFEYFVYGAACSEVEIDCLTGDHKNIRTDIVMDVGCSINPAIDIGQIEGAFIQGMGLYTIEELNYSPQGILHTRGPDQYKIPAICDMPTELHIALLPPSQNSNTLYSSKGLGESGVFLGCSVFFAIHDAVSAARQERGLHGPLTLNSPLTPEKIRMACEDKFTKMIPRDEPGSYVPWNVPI
Description: The metabolism of MPZ was evaluated in the human liver cytosolic incubation. A metabolic incubation was performed with HLC (1 mg/mL protein) and 10 μM MPZ at 37° C. for on an orbital shaker for 60 min. […] Another set of incubation was also conducted 1 μM phthalazine, a known substrate for aldehyde oxidase as positive control, under identical conditions.

Structure (SMILES)	metabolism of MPZ [1]	contribution of other CYP enzymes to MPZ metabolism (other CYP enzymes)	MPZA formation in HLM at pH 8.4 (microsomal FMOs in HLM)	MPZA formation as a function of pH [2]	less potent at the human D2 receptor compared to the parent (human D2 receptor)	Metopimazine Acid Formation, 100 μM Menadione ([3]; incubation time 0 min) [nM]	Metopimazine Acid Formation, No Menadione ([3]; incubation time 0 min) [nM]	Metopimazine Acid Formation, 100 μM Menadione ([3]; incubation time 60 min) [nM]	Metopimazine Acid Formation, No Menadione ([3]; incubation time 60 min) [nM]
CS(=O)(=O)c1ccc2c(c1)N(CCCN1CCC(C(N)=O)CC1)c1ccccc1S2 [MPZ, metopimazine]	virtually no metabolism	None of the other CYP enzymes appeared to have significant contribution							
CS(=O)(=O)c1ccc2c(c1)N(CCCN1CCC(C(=O)O)CC1)c1ccccc1S2 [MPZA, metopimazine acid]			Considerable formation of MPZA was observed with all conditions	faster the higher the pH; also recorded: maximal at the highest pH tested, pH 9.4; also recorded: occurs at all pHs and increases at pHs above physiologic pH	about 200 fold	0.00	0.00	718.90 ± 21.40	1371.66 ± 70.93
